Target: T1, AsPC-1 HiBiT-KRASG12D (Homo sapiens, UniProt P01116, G12D)
T1 construct: insert the HiBiT tag onto the N-terminus of one or more of the endogenous KRAS alleles; endogenous in cells; host or cells: AsPC-1 (ATCC CRL-1682), CRISPR-Cas9 knock-in clone, one tagged allele
Assay: HiBiT degradation assay (G12D), AsPC-1 HiBiT-KRASG12D cells
Assay type: cell-based
Details: 24 hours treatment; for DC50: AsPC-1 HiBiT-KRASG12D cells, HiBiT luminescence; for Dmax: ASPC1, AsPC-1 HiBiT-KRASG12D cells, maximum degradation observed
Summary of the method: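 Steps: treat HiBiT-KRASG12D AsPC-1 cells with compound for 24 hours; add alamar blue to 1× and incubate 4 hours to assess viability; wash with PBS; add HiBiT lytic detection reagent, incubate 45 minutes at room temperature; read luminescence. Viability fluorescence is normalized to DMSO wells.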

T1 sequence (P01116 1-188 isoform P01116-2 G12D): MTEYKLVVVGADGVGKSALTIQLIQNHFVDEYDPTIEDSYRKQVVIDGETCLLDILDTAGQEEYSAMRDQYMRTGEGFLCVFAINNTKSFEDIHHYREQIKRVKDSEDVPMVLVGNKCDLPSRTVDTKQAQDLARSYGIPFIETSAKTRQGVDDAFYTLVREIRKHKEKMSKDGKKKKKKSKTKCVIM

CCc1cccc2cc(O)cc(-c3ncc4c(N5CC6CCC(C5)N6)nc(OCCN5CCC(C)(COc6cc([C@@H](C(=O)N7C[C@H](O)C[C@H]7C(=O)N[C@@H](C)c7ccc(-c8scnc8C)cc7)C(C)C)on6)CC5)nc4c3F)c12 [Compound 31, (2S,4R)-1-[(2S)-2-{3-[(1-{2-[(4-{3,8-diazabicyclo[3.2.1]octan-3-yl}-7-(8-ethyl-3-hydroxynaphthalen-1-yl)-8-fluoropyrido[4,3-d]pyrimidin-2-yl)oxy]ethyl}-4-methylpiperidin-4-yl)methoxy]-1,2-oxazol-5-yl}-3-methylbutanoyl]-4-hydroxy-N-[(1S)-1-[4-(4-methyl-1,3-thiazol-5-yl)phenyl]ethyl]pyrrolidine-2-carboxamide]
DC50: > 3000 nM

CCc1cccc2cc(O)cc(-c3ncc4c(N5CC6CCC(C5)N6)nc(OCCN5CCC(C)(COc6cc([C@H](C(=O)N7C[C@H](O)C[C@H]7C(=O)N[C@@H](C)c7ccc(-c8scnc8C)cc7)C(C)C)on6)CC5)nc4c3F)c12 [Compound 32, (2S,4R)-1-[(2R)-2-{3-[(1-{2-[(4-{3,8-diazabicyclo[3.2.1]octan-3-yl}-7-(8-ethyl-3-hydroxynaphthalen-1-yl)-8-fluoropyrido[4,3-d]pyrimidin-2-yl)oxy]ethyl}-4-methylpiperidin-4-yl)methoxy]-1,2-oxazol-5-yl}-3-methylbutanoyl]-4-hydroxy-N-[(1S)-1-[4-(4-methyl-1,3-thiazol-5-yl)phenyl]ethyl]pyrrolidine-2-carboxamide]
Dmax: 80 to 100% | DC50: < 600 nM

C#Cc1c(F)ccc2cc(O)cc(-c3ncc4c(N5CC6CCC(C5)N6)nc(OCCN5CCC6(CC5)CN(c5cc([C@H](C(=O)N7C[C@H](O)C[C@H]7C(=O)N[C@@H](C)c7ccc(-c8scnc8C)cc7)C(C)C)on5)C6)nc4c3F)c12 [Compound 33, (2S,4R)-1-[(2R)-2-[3-(7-{2-[(4-{3,8-diazabicyclo[3.2.1]octan-3-yl}-7-(8-ethynyl-7-fluoro-3-hydroxynaphthalen-1-yl)-8-fluoropyrido[4,3-d]pyrimidin-2-yl)oxy]ethyl}-2,7-diazaspiro[3.5]nonan-2-yl)-1,2-oxazol-5-yl]-3-methylbutanoyl]-4-hydroxy-N-[(1S)-1-[4-(4-methyl-1,3-thiazol-5-yl)phenyl]ethyl]pyrrolidine-2-carboxamide]
Dmax: 80 to 100% | DC50: < 600 nM

CCc1cccc2cc(O)cc(-c3ncc4c(N5CC6CCC(C5)N6)nc(OC[C@@H]5CC[C@@H](COC(=O)N6CCN(c7cc([C@H](C(=O)N8C[C@H](O)C[C@H]8C(=O)N[C@@H](C)c8ccc(-c9scnc9C)cc8)C(C)C)on7)CC6)N5C)nc4c3F)c12 [Compound 50, [(2S,5S)-5-{[(4-{3,8-diazabicyclo[3.2.1]octan-3-yl}-7-(8-ethyl-3-hydroxynaphthalen-1-yl)-8-fluoropyrido[4,3-d]pyrimidin-2-yl)oxy]methyl}-1-methylpyrrolidin-2-yl]methyl 4-{5-[(2R)-1-[(2S,4R)-4-hydroxy-2-{[(1S)-1-[4-(4-methyl-1,3-thiazol-5-yl)phenyl]ethyl]carbamoyl}pyrrolidin-1-yl]-3-methyl-1-oxobutan-2-yl]-1,2-oxazol-3-yl}piperazine-1-carboxylate]
Dmax: 80 to 100% | DC50: < 600 nM

C#Cc1c(F)ccc2cccc(-c3ncc4c(N5CC6CCC(C5)N6)nc(OC[C@@]56CCCN5[C@H](COc5cc([C@@H](C(=O)N7C[C@H](O)C[C@H]7C(=O)N[C@@H](C)c7ccc(-c8scnc8C)cc7)C(C)C)on5)CC6)nc4c3F)c12 [Compound 51, (2S,4R)-1-[(2S)-2-(3-{[(3S,7aS)-7a-{[(4-{3,8-diazabicyclo[3.2.1]octan-3-yl}-7-(8-ethynyl-7-fluoronaphthalen-1-yl)-8-fluoropyrido[4,3-d]pyrimidin-2-yl)oxy]methyl}-hexahydro-1H-pyrrolizin-3-yl]methoxy}-1,2-oxazol-5-yl)-3-methylbutanoyl]-4-hydroxy-N-[(1S)-1-[4-(4-methyl-1,3-thiazol-5-yl)phenyl]ethyl]pyrrolidine-2-carboxamide]
DC50: > 3000 nM

C#Cc1c(F)ccc2cccc(-c3ncc4c(N5CC6CCC(C5)N6)nc(OC[C@@]56CCCN5[C@H](COc5cc([C@H](C(=O)N7C[C@H](O)C[C@H]7C(=O)N[C@@H](C)c7ccc(-c8scnc8C)cc7)C(C)C)on5)CC6)nc4c3F)c12 [Compound 52, (2S,4R)-1-[(2R)-2-(3-{[(3S,7aS)-7a-{[(4-{3,8-diazabicyclo[3.2.1]octan-3-yl}-7-(8-ethynyl-7-fluoronaphthalen-1-yl)-8-fluoropyrido[4,3-d]pyrimidin-2-yl)oxy]methyl}-hexahydro-1H-pyrrolizin-3-yl]methoxy}-1,2-oxazol-5-yl)-3-methylbutanoyl]-4-hydroxy-N-[(1S)-1-[4-(4-methyl-1,3-thiazol-5-yl)phenyl]ethyl]pyrrolidine-2-carboxamide]
Dmax: 80 to 100% | DC50: < 600 nM

C#Cc1c(F)ccc2cccc(-c3ncc4c(N5CC6CCC(C5)N6)nc(OC[C@]56CCCN5[C@H](COC(=O)N5CCN(c7cc([C@H](C(=O)N8C[C@H](O)C[C@H]8C(=O)N[C@@H](C)c8ccc(-c9scnc9C)cc8)C(C)C)on7)CC5)CC6)nc4c3F)c12 [Compound 53, [(3S,7aR)-7a-{[(4-{3,8-diazabicyclo[3.2.1]octan-3-yl}-7-(8-ethynyl-7-fluoronaphthalen-1-yl)-8-fluoropyrido[4,3-d]pyrimidin-2-yl)oxy]methyl}-hexahydro-1H-pyrrolizin-3-yl]methyl 4-{5-[(2R)-1-[(2S,4R)-4-hydroxy-2-{[(1S)-1-[4-(4-methyl-1,3-thiazol-5-yl)phenyl]ethyl]carbamoyl}pyrrolidin-1-yl]-3-methyl-1-oxobutan-2-yl]-1,2-oxazol-3-yl}piperazine-1-carboxylate]
Dmax: 80 to 100% | DC50: < 600 nM

CCc1cccc2cccc(-c3ncc4c(N5CC6CCC(C5)N6)nc(OC[C@@]56CCCN5[C@H](COc5cc([C@H](C(=O)N7C[C@H](O)C[C@H]7C(=O)N[C@@H](C)c7ccc(-c8scnc8C)cc7)C(C)C)on5)CC6)nc4c3F)c12 [Compound 54, (2S,4R)-1-[(2R)-2-(3-{[(3S,7aS)-7a-{[(4-{3,8-diazabicyclo[3.2.1]octan-3-yl}-7-(8-ethylnaphthalen-1-yl)-8-fluoropyrido[4,3-d]pyrimidin-2-yl)oxy]methyl}-hexahydro-1H-pyrrolizin-3-yl]methoxy}-1,2-oxazol-5-yl)-3-methylbutanoyl]-4-hydroxy-N-[(1S)-1-[4-(4-methyl-1,3-thiazol-5-yl)phenyl]ethyl]pyrrolidine-2-carboxamide]
Dmax: 80 to 100% | DC50: < 600 nM

CCc1cccc2cccc(-c3ncc4c(N5CC6CCC(C5)N6)nc(OC[C@@]56CCCN5[C@H](COc5cc([C@@H](C(=O)N7C[C@H](O)C[C@H]7C(=O)N[C@@H](C)c7ccc(-c8scnc8C)cc7)C(C)C)on5)CC6)nc4c3F)c12 [Compound 55, (2S,4R)-1-[(2S)-2-(3-{[(3S,7aS)-7a-{[(4-{3,8-diazabicyclo[3.2.1]octan-3-yl}-7-(8-ethylnaphthalen-1-yl)-8-fluoropyrido[4,3-d]pyrimidin-2-yl)oxy]methyl}-hexahydro-1H-pyrrolizin-3-yl]methoxy}-1,2-oxazol-5-yl)-3-methylbutanoyl]-4-hydroxy-N-[(1S)-1-[4-(4-methyl-1,3-thiazol-5-yl)phenyl]ethyl]pyrrolidine-2-carboxamide]
DC50: > 3000 nM

C#Cc1c(F)ccc2cc(O)cc(-c3ncc4c(N5CC6CCC(C5)N6)nc(OC[C@]56CCCN5[C@H](COC(=O)N5CCN(c7cc([C@H](C(=O)N8C[C@H](O)C[C@H]8C(=O)N[C@@H](C)c8ccc(-c9scnc9C)cc8)C(C)C)on7)CC5)CC6)nc4c3F)c12 [Compound 56, [(3S,7aR)-7a-{[(4-{3,8-diazabicyclo[3.2.1]octan-3-yl}-7-(8-ethynyl-7-fluoro-3-hydroxynaphthalen-1-yl)-8-fluoropyrido[4,3-d]pyrimidin-2-yl)oxy]methyl}-hexahydro-1H-pyrrolizin-3-yl]methyl 4-{5-[(2R)-1-[(2S,4R)-4-hydroxy-2-{[(1S)-1-[4-(4-methyl-1,3-thiazol-5-yl)phenyl]ethyl]carbamoyl}pyrrolidin-1-yl]-3-methyl-1-oxobutan-2-yl]-1,2-oxazol-3-yl}piperazine-1-carboxylate]
Dmax: 80 to 100% | DC50: < 600 nM

CCc1cccc2cccc(-c3ncc4c(N5CC6CCC(C5)N6)nc(OC[C@]56CCCN5[C@H](COC(=O)N5CCN(c7cc([C@H](C(=O)N8C[C@H](O)C[C@H]8C(=O)N[C@@H](C)c8ccc(-c9scnc9C)cc8)C(C)C)on7)CC5)CC6)nc4c3F)c12 [Compound 57]
Dmax: 60 to 80% | DC50: < 600 nM

C#Cc1c(F)ccc2cc(O)cc(-c3ncc4c(N5CC6CCC(C5)N6)nc(OC[C@@]56CCCN5[C@H](COC(=O)N5CCN(c7cc([C@H](C(=O)N8C[C@H](O)C[C@H]8C(=O)N[C@@H](C)c8ccc(-c9scnc9C)cc8)C(C)C)on7)CC5)CC6)nc4c3F)c12 [Compound 58, [(3S,7aS)-7a-{[(4-{3,8-diazabicyclo[3.2.1]octan-3-yl}-7-(8-ethynyl-7-fluoro-3-hydroxynaphthalen-1-yl)-8-fluoropyrido[4,3-d]pyrimidin-2-yl)oxy]methyl}-hexahydro-1H-pyrrolizin-3-yl]methyl 4-{5-[(2R)-1-[(2S,4R)-4-hydroxy-2-{[(1S)-1-[4-(4-methyl-1,3-thiazol-5-yl)phenyl]ethyl]carbamoyl}pyrrolidin-1-yl]-3-methyl-1-oxobutan-2-yl]-1,2-oxazol-3-yl}piperazine-1-carboxylate]
Dmax: 80 to 100% | DC50: < 600 nM

Source: patent publication US20250206732A1, “COMPOUNDS AND METHODS FOR THE TARGETED DEGRADATION OF KRAS” (Arvinas Operations, Inc., priority 2022, published 2025)
